Reference: patent publication US8242086B2, “Methods and compositions for treating disorders caused by a deficiency in a gene product of a CLN gene” (Duke University, priority 2008, dated 2012)
Entries after “also recorded” stand apart in the source; their conditions may differ.

Experiments:
[1] = tested on: mutant CLN3p; experiment: Protein-lipid overlay assay, mutant CLN3p (JNCL cell lysate); assay type: binding, human; conditions: lysate of JNCL cells, anti-CLN3 antibody
Experimental: (§1) Protein-lipid overlay assay. Membrane arrays (SPHINGOSTRIPS (Echelon Research Laboratories, Salt Lake City, Utah), or lipids were spotted on nitrocellulose membranes and dried for at least one hour. Membranes were blocked with 3% (wt/vol) Fatty Acid Free or FFA-BSA (Sigma-Aldrich, St. Louis, Mo.) in Tris-Buffered Saline Tween-20 (TBST) [150 mM NaCl/10 mM Tris.HCl (pH 8.0), and 0.1% (vol/vol) Tween-20] for 1 h at RT. Blocked membranes were incubated for 8 h at 4° C. with 2 mg/ml of total cell lysate.
(§2) Fibroblasts overexpressing CLN3p (AC1 cells) and JNCL fibroblasts were used for the GalCer-CLN3 binding assay. The membranes were then washed five times for 5 min each with TBST. After washing, membranes were incubated with anti-CLN3, CLN1, CLN2, CLN6 or CLN8-antibodies overnight at 1:1000 dilution, followed by additional washing and incubation with horseradish peroxidase-conjugated anti-rabbit IgG goat antibody for 1 h at RT. After a final washing, enhanced chemiluminescence was used to detect binding of NCL proteins to sphingolipids. Intensity values were computed with an ImageJ software program.
Binding of CLN3 to GalCer and sulfatide. Membranes impregnated with sphingolipids were overlaid with protein cell lysates from CLN3-overexpressing and JNCL cells. Anti-CLN3 antibody was used to evaluate binding. […]

[2] = molecular target: T1, CLN6 protein (Homo sapiens, UniProt Q9NWW5); experiment: Protein-lipid overlay assay, CLN6 protein; assay type: binding; conditions: lysates from normal cells, custom made sphingostrips
T1 construct: endogenous in cells
T1 sequence (Q9NWW5 1-311): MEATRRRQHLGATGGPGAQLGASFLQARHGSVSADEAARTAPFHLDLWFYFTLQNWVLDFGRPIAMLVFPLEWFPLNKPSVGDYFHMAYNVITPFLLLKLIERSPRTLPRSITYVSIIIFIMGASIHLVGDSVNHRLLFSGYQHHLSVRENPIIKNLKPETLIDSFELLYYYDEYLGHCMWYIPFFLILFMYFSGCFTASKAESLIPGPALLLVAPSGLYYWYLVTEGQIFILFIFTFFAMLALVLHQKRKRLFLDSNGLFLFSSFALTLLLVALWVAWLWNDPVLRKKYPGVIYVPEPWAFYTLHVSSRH
Experimental: as §1, §2
CLN1, CLN2, CLN6, CLN8 and CLN9 proteins also bind to lipids. The protein-lipid overlay assay, using custom made sphingostrips, lysates from normal cells and anti-CLN1, anti-CLN2-, anti-CLN6, and anti-CLN8-antibodies, established that CLN6 and CLN8 proteins bind to GalCer, CLN1, CLN2 and CLN6p bind lysophosphatidic acid (LPA) and sulfatide, and CLN8p binds ceramide (FIG. 5).

[3] = tested on: CLN3-deficient (JNCL) cells; experiment: Growth of CLN3-deficient (JNCL) cells treated with GalCer, Trypan blue dye exclusion; assay type: cell-based, human
Experimental: Cell Culture. Lymphoblasts are grown at 37° C. and in 5% CO2 in RPMI 1640 medium (Sigma-Aldrich, St Louis, Mo.)/10% fetal bovine serum and 1% antibiotic/antimycotic. Immortalized lymphoblast cell lines originally obtained from JNCL and other NCL patients and normal donors, were used for all experiments. Fibroblasts from normal and mnd (CLN8-deficient) mice were also used. All JNCL lymphoblasts used are homozygous for the 1.02 kb deletion in the genomic DNA.
Treatment of CLN3-deficient (JNCL) cells with GalCer increases growth rates. 0.1 million CLN3−/− cells were plated per well in 6 well plates. harvested and counted at 24, 48, 72 and 96 hours. Numbers of viable cells were determined with Trypan blue dye exclusion.

[4] = tested on: CLN3 knockdown NT2 cells; experiment: Cell proliferation rate in CLN3 knockdown NT2 cells, Trypan blue dye exclusion; assay type: cell-based, human; conditions: GalCer 50 ng/ml, 3 days post-transfection
Experimental: (§3) Cell Culture and Cell Treatment. NT2 neuronal precursor cells (ATCC cat no. CRL 1973) were grown in DMEM supplemented with 1% sodium pyruvate, L-glutamine and antibiotics and incubated in 37 C and 5% CO2 for 3 days.
(§4) siRNA knockdown of CLN3 in NT2 cells. HS1 siRNA ([…]) for CLN3 knockdown was designed using BLOCK-iT RNA™ Designer (Invitrogen). […] siRNA and scrambled universal negative control siRNA oligonucleotides were transfected into wild type NT2 cells using Lipofectamine RNAiMax™ according to manufacturer's protocol. In brief, […] HS1 RNAi duplex or scrambled siRNA universal negative control were diluted in 50 μl DMEM medium without serum. Lipofectamine™ RNAiMAX was mixed gently before use, then 1 μl was diluted in 50 μl DMEM medium. The diluted RNAi duplexes were combined with the diluted Lipofectamine RNAiMAX and incubated for 10 minutes at room temperature. The RNAi duplex-Lipofectamine™ RNAiMAX complexes were added to cells for a final RNA concentration of 10 nM. […]
Determination of cell proliferation rate in CLN3 knockdown NT2 cells. 4×10^5 cells transfected with CLN3 siRNA or scrambled siRNA, and treated or not treated with 50 ng/ml GalCer, were seeded and counted with Trypan blue dye exclusion. […]
NT2 cell proliferation and apoptosis rates. An equal number of NT2 cells was initially seeded and cell number determined at different time points with Trypan blue dye exclusion. […]

[5] = tested on: CLN3 knockdown NT2 cells; experiment: Cell apoptosis rate in CLN3 knockdown NT2 cells, propidium iodide; assay type: cell-based, human; conditions: GalCer 50 ng/ml, 3 days after transfection
Experimental: as §3
as §4, with “temperature.” for “temperature. The RNAi duplex-Lipofectamine™ RNAiMAX complexes were added to cells for a final RNA concentration of 10 nM.”
Determination of cell apoptosis rate in CLN3 knockdown NT2 cells. 10^6 cells transfected with CLN3 siRNA or scrambled siRNA, either treated with 50 ng/ml of GalCer (Avanti Polar Lipids, inc.) or solvent, are suspended in 100 μl PBS, incubated with 100 μl/0.5 mg/ml PI, washed, placed on slides and viewed using a fluorescence microscope. […] Cells in three fields of vision were counted. Percentage of red staining-apoptotic cells/total cells was determined.

[6] = tested on: galactosylceramide transferase (GCT); conditions: exogenous supplementation of GalCer; Rusyn E et al., 2008; cited from earlier work

galactosylceramide [GalCer]
binding of mutant CLN3 to membrane spots impregnated with the lipid [1]: failed to do so
binding of CLN6 protein to lipid [2]: bind
growth of JNCL cells ([3]; GalCer 50 ng/ml, counted at 24, 48, 72 and 96 hours): restored growth
growth of JNCL cells ([3]; GalCer 100 ng/ml (doubled concentration)): no effect
growth of CLN3-deficient NT2 cells [4]: normalized growth; also recorded: corrects growth
cell death (apoptosis) of CLN3-deficient NT2 cells [5]: significantly reduces cell death
growth defect and increased apoptosis of GalCer synthase knockdown lymphoblasts [6]: remedied
